Experimental findings from patent US20260317364A1, “ACTIVE MACROLIDE ANTIBIOTIC COMPOUNDS AGAINST PATHOGENS” (priority 2023, published 2026) are described below.

Assay [1] relates to panel of bacterial isolates, including macrolide-resistant strains. The assay can be described thus: Antibacterial activity against panel of bacterial isolates (MIC). The format is cell-based. Particulars: comparison with other compounds of the series or reference macrolides. The procedure:
Acylides 2-24, as well as carbamate acylides 29-42, 47-48 and 55 and 56 were tested for antibacterial activity against a panel of bacterial isolates, including macrolide-resistant strains. Furthermore, potential toxicity against human HEK293 and red blood cells was assessed. All compounds were submitted to ComPlat (Karlsruhe Institute of Technology, Germany) for compound management and screening. As reference antibiotics, the macrolide antibiotics clarithromycin (CTY), telithromycin (TEL), solithromycin (SOL), as well as the previously reported acylides TEA0777 and X10324 (See, Wayne, P. C. a. L. S. I., Methods for Dilution Antimicrobial Susceptibility Tests for Bacteria That Grow Aerobically. CLSI document M07. CLSI 2009) were employed. […]
Furthermore, the Gram-negative bacteria E. coli (DSM 30083), Acinetobacter baumannii Bouvet and Grimont 1986 (DSM 30007) and Pseudomonas aeruginosa (DSM 50071) were assayed. […] The MIC values were determined as previously described (See, Wayne, P. C. a. L. S. I., Methods for Dilution Antimicrobial Susceptibility Tests for Bacteria That Grow Aerobically. CLSI document M07. CLSI 2009; Albada, H. B., et al., Modulating the activity of short arginine-tryptophan containing antibacterial peptides with N-terminal metallocenoyl groups. 2012. 8(1): p. 1753-1764).

The subject of assay [2] is E. coli tolC-deficient (tolC; MB5747). The assay can be described thus: Antibacterial activity against tolC-deficient E. coli. The format is cell-based.

As for 2-desfluoro-solithromycin [Compound 50], the “antibacterial activity (in words)” value in assay [1] is “significantly less potent than solithroymcin”.

As for `CC[C@H]1OC(=O)[C@H](C)[C@@H](O[C@H]2C[C@@](C)(OC)[C@@H](O)[C@H](C)O2)[C@H](C)[C@@H](O[C@@H]2O[C@H](C)C[C@H](N(C)C)[C@H]2O)[C@](C)(OC)C[C@@H](C)C(=O)[C@H](C)[C@@H](O)[C@]1(C)O` [clarithromycin], the “activity against tolC-deficient E. coli” value in assay [2] was “apart from the clinically used clarithromycin and telithromycin show activity”.

Regarding `CC[C@H]1OC(=O)[C@H](C)C(=O)[C@H](C)[C@@H](O[C@@H]2O[C@H](C)C[C@H](N(C)C)[C@H]2O)[C@](C)(OC)C[C@@H](C)C(=O)[C@H](C)[C@H]2N(CCCCn3cnc(-c4cccnc4)c3)C(=O)O[C@]12C` [telithromycin], in assay [2], the “activity against tolC-deficient E. coli” value was “apart from the clinically used clarithromycin and telithromycin show activity”.
